From patent US20250277734A1, “M-MIC: Microfluidic Microbiologically Influenced Corrosion Model” (The Texas A&M University System, priority 2017, published 2025)

System: Shewanella oneidensis biofilms
Assay: Biocide efficacy on S. oneidensis biofilms grown on carbon steel in single-electrode M-MIC (live/dead staining, confocal microscopy)
Format: cell-based
Settings: for increase in the percentage of dead cells: 400 ppm biocide added to 12 hour biofilm on carbon steel, after 4 hours SYTO9/propidium iodide staining, 30° C.
Description: Biofilms of Shewanella oneidensis (e.g., S. oneidensis, an iron-reducing bacterium commonly found in MIC sites) were grown on carbon steel in the single-metal system, such as M-MIC 200 as depicted in FIG. 2. In this Example 2, the single electrode comprised steel, the substrate 112 comprised glass, and the structure 104 comprised PDMS. Biofilms were developed in the system at 30° C. with a constant flow of Luria-Bertani growth medium which contained 10 g/l tryptone, 5 g/l yeast extract and 15 g/l sodium chloride being introduced at a flow rate of 0.25 mL/h. After 12 hours, flow of growth medium was stopped and 400 ppm of two common oilfield biocides, glutaraldehyde and tetrakis-hydroxymethyl-phosphonium sulfate (THPS), were added to the biofilms. After 4 hours, live and dead cells in the biofilms were stained using SYTO9 (green) and propidium iodide (red), respectively. Stained biofilms were analyzed for the percentage of live and dead cells to determine biocide efficiency. […] In addition to determining the right biocide, similar studies can be conducted with different biocide concentrations to also determine the appropriate biocide dosage.

Compound | increase in the percentage of dead cells | relative biocide effectiveness against S. oneidensis biofilms (400 ppm, 4 hours, under the conditions tested)
O=CCCCC=O [glutaraldehyde] | 2.1 fold | –
tetrakis-hydroxymethyl-phosphonium sulfate [THPS] | 3.1 fold | more effective than glutaraldehyde
